Test results as given in patent publication US11878975B2, “Substituted indole compounds useful as TLR inhibitors” (BRISTOL-MYERS SQUIBB COMPANY, priority 2017, dated 2024).

How the values were obtained:
Assay type in all cases: cell-based
[1] = molecular target: T1, human TLR9 (Homo sapiens, UniProt Q9NR96); assay: TLR9 inhibition reporter assay (HEK-Blue cells, SEAP reporter, ODN2006 stimulation); details: HEK-Blue cells overexpressing human TLR9, SEAP reporter, ODN2006 5 nM
T1 construct: host or cells: HEK-Blue cells
T1 sequence (Q9NR96 26-1032): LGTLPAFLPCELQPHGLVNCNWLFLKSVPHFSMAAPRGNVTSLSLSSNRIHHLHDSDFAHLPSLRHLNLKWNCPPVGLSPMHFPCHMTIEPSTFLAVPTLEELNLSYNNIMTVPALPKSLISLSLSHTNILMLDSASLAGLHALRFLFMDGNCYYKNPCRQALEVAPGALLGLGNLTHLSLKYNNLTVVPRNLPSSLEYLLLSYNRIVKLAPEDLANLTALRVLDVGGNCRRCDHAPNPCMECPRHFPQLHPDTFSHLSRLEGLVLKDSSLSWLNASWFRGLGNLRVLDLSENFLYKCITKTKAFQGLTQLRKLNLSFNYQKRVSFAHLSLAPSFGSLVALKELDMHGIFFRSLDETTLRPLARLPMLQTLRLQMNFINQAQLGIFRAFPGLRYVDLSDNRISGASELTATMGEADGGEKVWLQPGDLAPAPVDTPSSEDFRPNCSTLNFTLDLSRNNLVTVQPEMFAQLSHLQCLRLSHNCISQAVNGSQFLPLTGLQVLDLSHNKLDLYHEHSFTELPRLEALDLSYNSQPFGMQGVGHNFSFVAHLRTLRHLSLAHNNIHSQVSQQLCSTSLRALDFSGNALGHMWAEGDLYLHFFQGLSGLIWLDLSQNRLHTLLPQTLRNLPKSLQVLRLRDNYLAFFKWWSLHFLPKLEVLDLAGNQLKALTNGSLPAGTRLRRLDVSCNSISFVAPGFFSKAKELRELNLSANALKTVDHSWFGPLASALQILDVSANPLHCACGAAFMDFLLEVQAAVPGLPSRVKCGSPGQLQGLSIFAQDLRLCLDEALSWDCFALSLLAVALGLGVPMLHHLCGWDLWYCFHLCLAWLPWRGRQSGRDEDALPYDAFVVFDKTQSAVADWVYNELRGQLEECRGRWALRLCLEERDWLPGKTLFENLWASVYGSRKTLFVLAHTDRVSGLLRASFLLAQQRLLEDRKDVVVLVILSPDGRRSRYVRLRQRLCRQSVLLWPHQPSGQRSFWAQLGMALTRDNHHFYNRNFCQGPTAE
How it was run: (§1)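 HEK-Blue cells with NF-κB/AP-1-driven SEAP reporter, pre-treated 30 min at room temperature with compound (0.05 nM-50 μM). Stimulants: gardiquimod 7.5 μM (TLR7), R848 15.9 μM (TLR8) or ODN2006 5 nM (TLR9). SEAP measured after 22 h at 37° C.; percent inhibition versus agonist-plus-DMSO and known-inhibitor wells.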

[2] = molecular target: T2, human TLR8 (Homo sapiens, UniProt Q9NR97); assay: TLR8 inhibition reporter assay (HEK-Blue cells, SEAP reporter, R848 stimulation); details: HEK-Blue cells overexpressing human TLR8, SEAP reporter, R848 15.9 μM
T2 construct: host or cells: HEK-Blue cells
T2 sequence (Q9NR97 27-1041): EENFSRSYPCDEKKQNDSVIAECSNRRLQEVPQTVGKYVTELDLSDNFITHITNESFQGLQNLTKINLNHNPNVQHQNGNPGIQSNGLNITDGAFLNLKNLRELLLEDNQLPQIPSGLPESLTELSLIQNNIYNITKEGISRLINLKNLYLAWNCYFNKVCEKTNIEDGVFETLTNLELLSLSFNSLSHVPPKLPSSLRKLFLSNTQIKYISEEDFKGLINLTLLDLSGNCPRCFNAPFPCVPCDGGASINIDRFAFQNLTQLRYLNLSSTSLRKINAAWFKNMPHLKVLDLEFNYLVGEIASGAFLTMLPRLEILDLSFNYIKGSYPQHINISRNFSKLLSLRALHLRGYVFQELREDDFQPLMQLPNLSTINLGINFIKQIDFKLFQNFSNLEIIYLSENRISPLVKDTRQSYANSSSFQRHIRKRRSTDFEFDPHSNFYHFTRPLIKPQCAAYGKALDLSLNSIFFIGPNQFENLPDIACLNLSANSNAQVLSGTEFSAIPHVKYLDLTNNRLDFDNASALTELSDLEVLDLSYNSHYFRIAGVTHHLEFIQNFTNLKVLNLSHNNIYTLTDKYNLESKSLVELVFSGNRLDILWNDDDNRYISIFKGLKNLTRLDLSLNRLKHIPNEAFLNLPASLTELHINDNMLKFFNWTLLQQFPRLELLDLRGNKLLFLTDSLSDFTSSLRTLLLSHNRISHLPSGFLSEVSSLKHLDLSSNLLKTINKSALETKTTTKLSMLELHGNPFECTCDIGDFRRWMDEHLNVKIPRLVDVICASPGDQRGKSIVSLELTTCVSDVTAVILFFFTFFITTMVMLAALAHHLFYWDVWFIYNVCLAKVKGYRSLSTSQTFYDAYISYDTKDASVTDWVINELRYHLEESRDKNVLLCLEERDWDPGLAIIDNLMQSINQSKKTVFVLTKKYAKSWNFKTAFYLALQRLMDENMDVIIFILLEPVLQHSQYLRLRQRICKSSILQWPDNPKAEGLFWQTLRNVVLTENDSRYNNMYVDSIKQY
How it was run: as §1

[3] = molecular target: T3, human TLR7 (Homo sapiens, UniProt Q9NYK1); assay: TLR7 inhibition reporter assay (HEK-Blue cells, SEAP reporter, gardiquimod stimulation); details: HEK-Blue cells overexpressing human TLR7, SEAP reporter, gardiquimod 7.5 μM
T3 construct: host or cells: HEK-Blue cells
T3 sequence (Q9NYK1 27-1049): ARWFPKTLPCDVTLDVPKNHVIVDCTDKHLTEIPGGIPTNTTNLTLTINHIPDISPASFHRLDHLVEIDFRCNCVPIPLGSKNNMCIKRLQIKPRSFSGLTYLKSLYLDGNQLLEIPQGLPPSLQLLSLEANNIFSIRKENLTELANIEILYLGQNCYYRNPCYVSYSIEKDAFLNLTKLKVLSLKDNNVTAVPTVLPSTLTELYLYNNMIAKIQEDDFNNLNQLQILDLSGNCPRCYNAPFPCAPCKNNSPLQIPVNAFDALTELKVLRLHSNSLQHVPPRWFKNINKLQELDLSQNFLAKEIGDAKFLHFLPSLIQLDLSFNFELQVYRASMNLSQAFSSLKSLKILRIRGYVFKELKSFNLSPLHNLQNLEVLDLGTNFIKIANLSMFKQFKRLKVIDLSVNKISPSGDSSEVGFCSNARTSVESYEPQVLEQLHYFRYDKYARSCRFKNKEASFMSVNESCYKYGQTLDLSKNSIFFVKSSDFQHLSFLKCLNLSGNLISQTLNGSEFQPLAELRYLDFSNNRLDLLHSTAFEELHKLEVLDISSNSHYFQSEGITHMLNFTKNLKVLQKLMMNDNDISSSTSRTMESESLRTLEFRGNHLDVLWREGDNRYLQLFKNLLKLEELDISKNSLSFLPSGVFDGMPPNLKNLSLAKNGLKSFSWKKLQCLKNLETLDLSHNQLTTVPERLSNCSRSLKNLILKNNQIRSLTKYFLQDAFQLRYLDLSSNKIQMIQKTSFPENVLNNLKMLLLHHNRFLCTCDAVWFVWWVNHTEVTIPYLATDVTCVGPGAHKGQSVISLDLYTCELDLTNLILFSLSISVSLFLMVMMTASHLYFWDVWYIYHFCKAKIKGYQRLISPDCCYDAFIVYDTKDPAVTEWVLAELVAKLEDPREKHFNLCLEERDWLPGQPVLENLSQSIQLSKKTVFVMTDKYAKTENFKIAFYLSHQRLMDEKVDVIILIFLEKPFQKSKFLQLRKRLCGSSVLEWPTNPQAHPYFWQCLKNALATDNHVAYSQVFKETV
How it was run: as §1

| IC50 [1] | IC50 [2] | IC50 [3] | SMILES |
| --- | --- | --- | --- |
| 22900 nM | 66 nM | 618 nM | COc1cc(-c2[nH]c3ccc(C4CN(CC(=O)N(C)C)C4)cc3c2C(C)C)cn2ncnc12 [Example 262] |
| 3620 nM | 4 nM | 2 nM | CNC(=O)CN1CC(c2ccc3[nH]c(-c4cc(OC)c5ncnn5c4)c(C(C)C)c3c2)C1 [Example 263] |
| 8170 nM | 19 nM | 3 nM | Cc1cc(-c2[nH]c3ccc(C4CN(CCS(C)(=O)=O)C4)cc3c2C(C)C)cn2ncnc12 [Example 264] |
| 3420 nM | 2.9 nM | 1 nM | COc1cc(-c2[nH]c3ccc(C4CN(CCS(C)(=O)=O)C4)cc3c2C(C)C)cn2ncnc12 [Example 265] |
| 1450 nM | 2.9 nM | 0.31 nM | Cc1cc(-c2[nH]c3ccc(C4CN(C(=O)CN(C)C)C4)cc3c2C(C)C)cn2ncnc12 [Example 266, 2-(dimethylamino)-1-(3-(3-isopropyl-2-(8-methyl-[1,2,4]triazolo[1,5-a]pyridin-6-yl)-1H-indol-5-yl)azetidin-1-yl)ethan-1-one] |
| 2000 nM | 5.5 nM | 0.96 nM | CNCC(=O)N1CC(c2ccc3[nH]c(-c4cc(C)c5ncnn5c4)c(C(C)C)c3c2)C1 [Example 267, 1-(3-(3-isopropyl-2-(8-methyl-[1,2,4]triazolo[1,5-a]pyridin-6-yl)-1H-indol-5-yl)azetidin-1-yl)-2-(methylamino)ethan-1-one] |
| 396 nM | 5.9 nM | 0.72 nM | CNCC(=O)N1CC(c2ccc3[nH]c(-c4cc(OC)c5ncnn5c4)c(C(C)C)c3c2)C1 [Example 268] |
| 3670 nM | 8.3 nM | 5 nM | Cc1cc(-c2[nH]c3ccc(C4CN(C5CCOC(C)(C)C5)C4)cc3c2C(C)C)cn2ncnc12 (stereo not drawn) [Example 269, 6-(5-(1-(2,2-dimethyltetrahydro-2H-pyran-4-yl)azetidin-3-yl)-3-isopropyl-1H-indol-2-yl)-8-methyl-[1,2,4]triazolo[1,5-a]pyridine] |
| 888 nM | 20 nM | 14 nM | Cc1cc(-c2[nH]c3ccc(C4CN(C5CCS(=O)(=O)CC5)C4)cc3c2C(C)C)cc(C)n1 [Example 270] |
| 29100 nM | 22 nM | 5 nM | Cc1cc(-c2[nH]c3ccc(C4CN(C5COC5)C4)cc3c2C(C)C)cn2ncnc12 [Example 271] |
| 1310 nM | 2.1 nM | 0.84 nM | COc1cc(-c2[nH]c3ccc(C4CN(C(C)C)C4)cc3c2C(C)C)cn2ncnc12 [Example 272] |
| 5250 nM | 97 nM | 28 nM | COc1cc(-c2[nH]c3ccc(C4CN(C)C4)cc3c2C(C)C)cn2ncnc12 [Example 273] |
| 3880 nM | 2.7 nM | 1 nM | COc1cc(-c2[nH]c3ccc(C4CN(C5COC5)C4)cc3c2C(C)C)cn2ncnc12 [Example 274] |
| 3130 nM | 73 nM | 37 nM | COc1ccc(-c2[nH]c3ccc(C4CCC5CC(C4)N5)cc3c2C(C)C)cc1OC (stereo not drawn) [Example 279, 3-(2-(3.4-dimethoxyphenyl)-3-isopropyl-1H-indol-5-yl)-7-azabicyclo[4.1.1]octane] |
| 4020 nM | 1.1 nM | 0.38 nM | Cc1cc(-c2[nH]c3ccc(C4CNCCO4)cc3c2C(C)C)cn2ncnc12 (stereo not drawn) [Example 281, 2-(3-isopropyl-2-(8-methyl-[1,2,4]triazolo[1,5-a]pyridin-6-yl)-1H-indol-5-yl)morpholine] |
| 3800 nM | 1 nM | 0.66 nM | Cc1cc(-c2[nH]c3ccc(C4CNCCO4)cc3c2C(C)C)cn2ncnc12 (stereo not drawn) [Example 282] |
| 2670 nM | 1.3 nM | 0.95 nM | Cc1cc(-c2[nH]c3ccc(C4CNCCO4)cc3c2C(C)C)cn2ncnc12 (stereo not drawn) [Example 283] |
| 1820 nM | 0.85 nM | 1 nM | COc1cc(-c2[nH]c3ccc(C4CNCCO4)cc3c2C(C)C)cn2ncnc12 (stereo not drawn) [Example 284] |
